Experimental data published in the NIST ThermoML archive (doi:10.1021/je060411g).
Where “and” joins values, the source holds several entries; their conditions need not be identical. Equal values may be shown once.

Test: molar heat capacity at constant pressure
Details: 101.33 kPa

CCC(O)CC [3-pentanol]
Details	molar heat capacity at constant pressure
5.43 K, Crystal	0.93 J/K/mol
5.48 K, Crystal	0.88 J/K/mol
6.3 K, Crystal	1.18 J/K/mol
6.63 K, Crystal	1.23 J/K/mol
7.14 K, Crystal	1.52 J/K/mol
7.71 K, Crystal	1.85 J/K/mol
7.86 K, Crystal	1.91 J/K/mol
8.49 K, Crystal	2.31 J/K/mol
8.59 K, Crystal	2.43 J/K/mol
9.16 K, Crystal	2.77 J/K/mol
9.61 K, Crystal	3.11 J/K/mol
9.92 K, Crystal	3.43 J/K/mol
10 K, Crystal	3.5 J/K/mol
10.7 K, Crystal	4.04 J/K/mol
10.73 K, Crystal	4.07 J/K/mol
11.58 K, Crystal	4.8 J/K/mol
11.84 K, Crystal	5.04 J/K/mol
12.49 K, Crystal	5.7 J/K/mol
13.05 K, Crystal	6.15 J/K/mol
13.45 K, Crystal	6.53 J/K/mol
14.32 K, Crystal	7.35 J/K/mol
14.43 K, Crystal	7.58 J/K/mol
15 K, Crystal	8.21 J/K/mol
15.45 K, Crystal	8.54 J/K/mol
15.63 K, Crystal	8.59 J/K/mol
16.51 K, Crystal	9.66 J/K/mol
16.98 K, Crystal	10.07 J/K/mol
17.58 K, Crystal	10.69 J/K/mol
18.36 K, Crystal	11.47 J/K/mol
18.67 K, Crystal	11.8 J/K/mol
19.77 K, Crystal	13.01 J/K/mol and 12.97 J/K/mol
20 K, Crystal	13.21 J/K/mol
20.89 K, Crystal	14.13 J/K/mol
21.2 K, Crystal	14.45 J/K/mol
22.02 K, Crystal	15.43 J/K/mol
22.64 K, Crystal	16.12 J/K/mol
23.16 K, Crystal	16.63 J/K/mol
24.11 K, Crystal	17.73 J/K/mol
24.31 K, Crystal	18.04 J/K/mol
25 K, Crystal	18.82 J/K/mol
25.43 K, Crystal	19.3 J/K/mol
25.59 K, Crystal	19.51 J/K/mol
26.27 K, Crystal	19.88 J/K/mol
26.44 K, Crystal	21 J/K/mol
26.46 K, Crystal	20.69 J/K/mol
27.41 K, Crystal	20.88 J/K/mol
27.44 K, Crystal	20.97 J/K/mol
28.31 K, Crystal	21.71 J/K/mol
29.2 K, Crystal	22.65 J/K/mol
30 K, Crystal	23.56 J/K/mol
30.84 K, Crystal	24.51 J/K/mol
32.44 K, Crystal	26.27 J/K/mol
34.05 K, Crystal	27.98 J/K/mol
35 K, Crystal	28.96 J/K/mol
35.7 K, Crystal	29.65 J/K/mol
37.37 K, Crystal	30.89 J/K/mol
39.08 K, Crystal	32.33 J/K/mol
40 K, Crystal	33.19 J/K/mol
40.8 K, Crystal	33.94 J/K/mol
42.52 K, Crystal	35.56 J/K/mol
44.25 K, Crystal	37.13 J/K/mol
45 K, Crystal	37.81 J/K/mol
46 K, Crystal	38.7 J/K/mol
47.76 K, Crystal	40.3 J/K/mol
49.53 K, Crystal	41.89 J/K/mol
50 K, Crystal	42.29 J/K/mol
51.31 K, Crystal	43.33 J/K/mol
53.11 K, Crystal	44.7 J/K/mol
54.91 K, Crystal	46.08 J/K/mol
55 K, Crystal	46.14 J/K/mol
56.73 K, Crystal	47.47 J/K/mol
58.56 K, Crystal	48.81 J/K/mol
60 K, Crystal	49.88 J/K/mol
60.4 K, Crystal	50.18 J/K/mol
62.25 K, Crystal	51.52 J/K/mol
64.1 K, Crystal	52.82 J/K/mol
65 K, Crystal	53.44 J/K/mol
65.97 K, Crystal	54.11 J/K/mol
67.84 K, Crystal	55.41 J/K/mol
69.72 K, Crystal	56.67 J/K/mol
70 K, Crystal	56.86 J/K/mol
71.6 K, Crystal	57.95 J/K/mol
73.49 K, Crystal	59.18 J/K/mol
75 K, Crystal	60.13 J/K/mol
75.38 K, Crystal	60.37 J/K/mol
77.28 K, Crystal	61.55 J/K/mol
79.19 K, Crystal	62.78 J/K/mol
80 K, Crystal	63.27 J/K/mol
81.1 K, Crystal	63.93 J/K/mol
83.01 K, Crystal	65.07 J/K/mol
84.93 K, Crystal	66.32 J/K/mol
85 K, Crystal	66.36 J/K/mol
86.86 K, Crystal	67.47 J/K/mol
88.78 K, Crystal	68.55 J/K/mol
90 K, Crystal	69.21 J/K/mol
90.7 K, Crystal	69.61 J/K/mol
92.62 K, Crystal	70.75 J/K/mol
94.54 K, Crystal	71.9 J/K/mol
95 K, Crystal	72.17 J/K/mol
96.47 K, Crystal	72.98 J/K/mol
98.4 K, Crystal	74.27 J/K/mol
98.9 K, Glass	77.69 J/K/mol
99.63 K, Glass	77.09 J/K/mol
100 K, Crystal	76.23 J/K/mol
100.34 K, Crystal	75.65 J/K/mol
100.42 K, Crystal	75.69 J/K/mol
100.73 K, Crystal	75.56 J/K/mol
101.47 K, Glass	78.26 J/K/mol
101.88 K, Crystal	76.15 J/K/mol
103.84 K, Crystal	77.02 J/K/mol
104.37 K, Glass	79.98 J/K/mol
105 K, Crystal	79.46 J/K/mol
105.79 K, Crystal	78.1 J/K/mol
107.23 K, Glass	82.34 J/K/mol
107.74 K, Crystal	79.42 J/K/mol
109.68 K, Crystal	80.42 J/K/mol
110 K, Crystal	83.89 J/K/mol
110.1 K, Glass	84.56 J/K/mol
111.63 K, Crystal	81.37 J/K/mol
112.97 K, Glass	86.83 J/K/mol
113.58 K, Crystal	82.36 J/K/mol
115.54 K, Crystal	83.34 J/K/mol
115.84 K, Glass	89.3 J/K/mol
117.49 K, Crystal	84.31 J/K/mol
118.71 K, Glass	92.11 J/K/mol
119.44 K, Crystal	85.07 J/K/mol
120 K, Crystal	82.36 J/K/mol
121.39 K, Crystal	86.04 J/K/mol
121.59 K, Glass	95.01 J/K/mol
123.34 K, Crystal	87.47 J/K/mol
124.46 K, Glass	99.21 J/K/mol
125.29 K, Crystal	88.5 J/K/mol
127.24 K, Crystal	89.59 J/K/mol
127.34 K, Glass	104.26 J/K/mol
129.2 K, Crystal	90.65 J/K/mol
131.15 K, Crystal	91.7 J/K/mol
133.11 K, Crystal	92.81 J/K/mol
135.06 K, Crystal	93.83 J/K/mol
135.56 K, Liquid	147.41 J/K/mol
137.01 K, Crystal	94.96 J/K/mol
138.31 K, Liquid	149.27 J/K/mol
138.96 K, Crystal	95.99 J/K/mol
140.92 K, Crystal	97.1 J/K/mol
141.2 K, Liquid	149.61 J/K/mol
142.87 K, Crystal	98.24 J/K/mol
144.14 K, Liquid	149.91 J/K/mol
144.82 K, Crystal	99.32 J/K/mol
146.77 K, Crystal	100.55 J/K/mol
147.09 K, Liquid	150.15 J/K/mol
148.72 K, Crystal	101.76 J/K/mol
150.04 K, Liquid	150.36 J/K/mol
150.67 K, Crystal	103.08 J/K/mol
152.61 K, Crystal	104.4 J/K/mol
